Reference: the CheMixHub viscosity set
± gives the uncertainty stated by the source.

Experiment: xn = mol fraction of the nth substance listed

Structure (SMILES): OCCOCCOCCO + O
- viscosity (293.15 K, 100 kPa, x2 = 0.05): 46.03 ± 0.86 mPa·s
- viscosity (293.15 K, 100 kPa, x2 = 0.094): 44.8 ± 0.82 mPa·s
- viscosity (298.15 K, 100 kPa, x2 = 0.014): 37.14 ± 0.62 mPa·s
- viscosity (298.15 K, 100 kPa, x2 = 0.094): 34.66 ± 0.57 mPa·s
- viscosity (298.15 K, 101.33 kPa, x1 = 0.0824): 3.65 ± 0.1 mPa·s
- viscosity (298.15 K, 101.33 kPa, x1 = 0.1678): 8.7 ± 0.23 mPa·s
- viscosity (298.15 K, 101.33 kPa, x1 = 0.35): 19.77 ± 0.52 mPa·s
- viscosity (303.15 K, 100 kPa, x2 = 0.05): 28.19 ± 0.44 mPa·s
- viscosity (303.15 K, 100 kPa, x2 = 0.094): 27.25 ± 0.4 mPa·s
- viscosity (303.15 K, 100 kPa, x2 = 0.112): 27.95 ± 0.96 mPa·s
- viscosity (303.15 K, 101 kPa, x1 = 0.05023): 2.114 ± 0.081 mPa·s
- viscosity (303.15 K, 101 kPa, x1 = 0.1004): 4.102 ± 0.084 mPa·s
- viscosity (303.15 K, 101 kPa, x1 = 0.1518): 6.604 ± 0.089 mPa·s
- viscosity (303.15 K, 101 kPa, x1 = 0.2006): 9.27 ± 0.095 mPa·s
- viscosity (303.15 K, 101 kPa, x1 = 0.2528): 11.91 ± 0.11 mPa·s
- viscosity (303.15 K, 101 kPa, x1 = 0.2995): 14.77 ± 0.11 mPa·s
- viscosity (303.15 K, 101 kPa, x1 = 0.3928): 18.53 ± 0.13 mPa·s
- viscosity (303.15 K, 101 kPa, x1 = 0.5013): 21.84 ± 0.15 mPa·s
- viscosity (303.15 K, 101 kPa, x1 = 0.5995): 24.34 ± 0.17 mPa·s
- viscosity (303.15 K, 101 kPa, x1 = 0.6648): 25.69 ± 0.18 mPa·s
- viscosity (303.15 K, 101 kPa, x1 = 0.7981): 27.13 ± 0.2 mPa·s
- viscosity (303.15 K, 101 kPa, x1 = 0.8445): 27.86 ± 0.21 mPa·s
- viscosity (303.15 K, 101 kPa, x1 = 0.8998): 28.37 ± 0.22 mPa·s
- viscosity (303.15 K, 101 kPa, x1 = 0.954): 28.74 ± 0.22 mPa·s
- viscosity (303.15 K, 101.33 kPa, x1 = 0.0004): 0.781 ± 0.011 mPa·s
- viscosity (303.15 K, 101.33 kPa, x1 = 0.0008): 0.788 ± 0.011 mPa·s
- viscosity (303.15 K, 101.33 kPa, x1 = 0.0014): 0.798 ± 0.011 mPa·s
- viscosity (303.15 K, 101.33 kPa, x1 = 0.0024): 0.82 ± 0.011 mPa·s
- viscosity (303.15 K, 101.33 kPa, x1 = 0.0056): 0.875 ± 0.012 mPa·s
- viscosity (303.15 K, 101.33 kPa, x1 = 0.011): 0.986 ± 0.013 mPa·s
- viscosity (303.15 K, 101.33 kPa, x1 = 0.0317): 1.48 ± 0.019 mPa·s
- viscosity (303.15 K, 101.33 kPa, x1 = 0.0563): 2.254 ± 0.028 mPa·s
- viscosity (303.15 K, 101.33 kPa, x1 = 0.0988): 4.058 ± 0.049 mPa·s
- viscosity (303.15 K, 101.33 kPa, x1 = 0.1954): 8.931 ± 0.096 mPa·s
- viscosity (303.15 K, 101.33 kPa, x1 = 0.2932): 14.1 ± 0.14 mPa·s
- viscosity (303.15 K, 101.33 kPa, x1 = 0.3871): 18.23 ± 0.18 mPa·s
- viscosity (303.15 K, 101.33 kPa, x1 = 0.5032): 22.21 ± 0.22 mPa·s
- viscosity (303.15 K, 101.33 kPa, x1 = 0.5991): 24.2 ± 0.24 mPa·s
- viscosity (303.15 K, 101.33 kPa, x1 = 0.6914): 26.06 ± 0.25 mPa·s
- viscosity (303.15 K, 101.33 kPa, x1 = 0.7941): 27.17 ± 0.26 mPa·s
- viscosity (308.15 K, 100 kPa, x2 = 0.05): 22.55 ± 0.32 mPa·s
- viscosity (308.15 K, 100 kPa, x2 = 0.094): 21.88 ± 0.29 mPa·s
- viscosity (308.15 K, 100 kPa, x2 = 0.112): 22.44 ± 0.69 mPa·s
- viscosity (308.15 K, 101 kPa, x1 = 0.05023): 1.848 ± 0.081 mPa·s
- viscosity (308.15 K, 101 kPa, x1 = 0.1004): 3.491 ± 0.083 mPa·s
- viscosity (308.15 K, 101 kPa, x1 = 0.1518): 5.543 ± 0.087 mPa·s
- viscosity (308.15 K, 101 kPa, x1 = 0.2006): 7.668 ± 0.092 mPa·s
- viscosity (308.15 K, 101 kPa, x1 = 0.2528): 9.722 ± 0.099 mPa·s
- viscosity (308.15 K, 101 kPa, x1 = 0.2995): 11.99 ± 0.11 mPa·s
- viscosity (308.15 K, 101 kPa, x1 = 0.3928): 14.94 ± 0.12 mPa·s
- viscosity (308.15 K, 101 kPa, x1 = 0.5013): 17.51 ± 0.14 mPa·s
- viscosity (308.15 K, 101 kPa, x1 = 0.5995): 19.48 ± 0.15 mPa·s
- viscosity (308.15 K, 101 kPa, x1 = 0.6648): 20.58 ± 0.16 mPa·s
- viscosity (308.15 K, 101 kPa, x1 = 0.7981): 21.8 ± 0.17 mPa·s
- viscosity (308.15 K, 101 kPa, x1 = 0.8445): 22.32 ± 0.18 mPa·s
- viscosity (308.15 K, 101 kPa, x1 = 0.8998): 22.65 ± 0.19 mPa·s
- viscosity (308.15 K, 101.33 kPa, x1 = 0.0004): 0.707 ± 0.01 mPa·s
- viscosity (308.15 K, 101.33 kPa, x1 = 0.0008): 0.714 ± 0.01 mPa·s
- viscosity (308.15 K, 101.33 kPa, x1 = 0.0014): 0.725 ± 0.01 mPa·s
- viscosity (308.15 K, 101.33 kPa, x1 = 0.0024): 0.736 ± 0.01 mPa·s
- viscosity (308.15 K, 101.33 kPa, x1 = 0.0056): 0.787 ± 0.011 mPa·s
- viscosity (308.15 K, 101.33 kPa, x1 = 0.011): 0.877 ± 0.012 mPa·s
- viscosity (308.15 K, 101.33 kPa, x1 = 0.0317): 1.298 ± 0.017 mPa·s
- viscosity (308.15 K, 101.33 kPa, x1 = 0.0563): 1.934 ± 0.025 mPa·s
- viscosity (308.15 K, 101.33 kPa, x1 = 0.0988): 3.33 ± 0.041 mPa·s
- viscosity (308.15 K, 101.33 kPa, x1 = 0.1954): 7.273 ± 0.081 mPa·s
- viscosity (308.15 K, 101.33 kPa, x1 = 0.2932): 11.27 ± 0.12 mPa·s
- viscosity (308.15 K, 101.33 kPa, x1 = 0.3871): 14.47 ± 0.15 mPa·s
- viscosity (313.15 K, 100 kPa, x2 = 0.014): 19.23 ± 0.23 mPa·s
- viscosity (313.15 K, 100 kPa, x2 = 0.05): 18.39 ± 0.23 mPa·s
- viscosity (313.15 K, 100 kPa, x2 = 0.094): 17.83 ± 0.21 mPa·s
- viscosity (313.15 K, 101 kPa, x1 = 0.05023): 1.618 ± 0.081 mPa·s
- viscosity (313.15 K, 101 kPa, x1 = 0.1004): 3.012 ± 0.082 mPa·s
- viscosity (313.15 K, 101 kPa, x1 = 0.1518): 4.689 ± 0.085 mPa·s
- viscosity (313.15 K, 101 kPa, x1 = 0.2006): 6.418 ± 0.089 mPa·s
- viscosity (313.15 K, 101 kPa, x1 = 0.2528): 8.113 ± 0.093 mPa·s
- viscosity (313.15 K, 101 kPa, x1 = 0.2995): 9.888 ± 0.1 mPa·s
- viscosity (313.15 K, 101 kPa, x1 = 0.3928): 12.22 ± 0.11 mPa·s
- viscosity (313.15 K, 101 kPa, x1 = 0.5013): 14.27 ± 0.12 mPa·s
- viscosity (313.15 K, 101 kPa, x1 = 0.5995): 15.84 ± 0.13 mPa·s
- viscosity (313.15 K, 101 kPa, x1 = 0.6648): 16.75 ± 0.14 mPa·s
- viscosity (313.15 K, 101 kPa, x1 = 0.7981): 17.67 ± 0.15 mPa·s
- viscosity (313.15 K, 101 kPa, x1 = 0.8445): 18.12 ± 0.15 mPa·s
- viscosity (313.15 K, 101 kPa, x1 = 0.8998): 18.44 ± 0.16 mPa·s
- viscosity (313.15 K, 101 kPa, x1 = 0.954): 18.69 ± 0.16 mPa·s
- viscosity (318.15 K, 100 kPa, x2 = 0.014): 15.91 ± 0.17 mPa·s
- viscosity (318.15 K, 100 kPa, x2 = 0.05): 15.2 ± 0.18 mPa·s
- viscosity (318.15 K, 100 kPa, x2 = 0.094): 14.73 ± 0.16 mPa·s
- viscosity (318.15 K, 100 kPa, x2 = 0.112): 15.13 ± 0.42 mPa·s
- viscosity (318.15 K, 101 kPa, x1 = 0.05023): 1.455 ± 0.08 mPa·s
- viscosity (318.15 K, 101 kPa, x1 = 0.1004): 2.621 ± 0.081 mPa·s
- viscosity (318.15 K, 101 kPa, x1 = 0.1518): 4.011 ± 0.084 mPa·s
- viscosity (318.15 K, 101 kPa, x1 = 0.2006): 5.421 ± 0.086 mPa·s
- viscosity (318.15 K, 101 kPa, x1 = 0.2528): 6.753 ± 0.09 mPa·s
- viscosity (318.15 K, 101 kPa, x1 = 0.2995): 8.235 ± 0.094 mPa·s
- viscosity (318.15 K, 101 kPa, x1 = 0.3928): 10.07 ± 0.1 mPa·s
- viscosity (318.15 K, 101 kPa, x1 = 0.5013): 11.79 ± 0.11 mPa·s
- viscosity (318.15 K, 101 kPa, x1 = 0.5995): 13.02 ± 0.12 mPa·s
- viscosity (318.15 K, 101 kPa, x1 = 0.6648): 13.73 ± 0.12 mPa·s
- viscosity (318.15 K, 101 kPa, x1 = 0.7981): 14.53 ± 0.13 mPa·s
- viscosity (318.15 K, 101 kPa, x1 = 0.8445): 14.92 ± 0.13 mPa·s
- viscosity (318.15 K, 101 kPa, x1 = 0.8998): 15.2 ± 0.14 mPa·s
- viscosity (318.15 K, 101 kPa, x1 = 0.954): 15.4 ± 0.14 mPa·s
- viscosity (323.15 K, 100 kPa, x2 = 0.014): 13.33 ± 0.14 mPa·s
- viscosity (323.15 K, 100 kPa, x2 = 0.05): 12.7 ± 0.15 mPa·s
- viscosity (323.15 K, 100 kPa, x2 = 0.094): 12.32 ± 0.13 mPa·s
- viscosity (323.15 K, 100 kPa, x2 = 0.112): 12.64 ± 0.34 mPa·s
- viscosity (323.15 K, 101 kPa, x1 = 0.05023): 1.295 ± 0.08 mPa·s
- viscosity (323.15 K, 101 kPa, x1 = 0.1004): 2.296 ± 0.081 mPa·s
- viscosity (323.15 K, 101 kPa, x1 = 0.1518): 3.473 ± 0.083 mPa·s
- viscosity (323.15 K, 101 kPa, x1 = 0.2006): 4.63 ± 0.085 mPa·s
- viscosity (323.15 K, 101 kPa, x1 = 0.2528): 5.724 ± 0.087 mPa·s
- viscosity (323.15 K, 101 kPa, x1 = 0.2995): 6.927 ± 0.092 mPa·s
- viscosity (323.15 K, 101 kPa, x1 = 0.3928): 8.441 ± 0.097 mPa·s
- viscosity (323.15 K, 101 kPa, x1 = 0.5013): 9.827 ± 0.1 mPa·s
- viscosity (323.15 K, 101 kPa, x1 = 0.5995): 10.84 ± 0.11 mPa·s
- viscosity (323.15 K, 101 kPa, x1 = 0.6648): 11.45 ± 0.11 mPa·s
- viscosity (323.15 K, 101 kPa, x1 = 0.7981): 12.09 ± 0.12 mPa·s
- viscosity (323.15 K, 101 kPa, x1 = 0.8445): 12.41 ± 0.12 mPa·s
- viscosity (323.15 K, 101 kPa, x1 = 0.8998): 12.64 ± 0.12 mPa·s
- viscosity (323.15 K, 101 kPa, x1 = 0.954): 12.8 ± 0.12 mPa·s
